Reference: patent US20230255953A1, “USE OF ROLUPERIDONE IN PREVENTING RELAPSE IN SCHIZOPHRENIA PATIENTS” (Minerva Neurosciences, Inc., priority 2022, published 2023)

Columns and labels:
Assay type in all cases: in vivo, human
[1] = test system: patients with negative symptoms of schizophrenia; test: Study #2 (MIN-101C07): Calgary Depression Scale for Schizophrenia; settings: Week 12 DB, ITT
Excerpt: (§1) Study #2 (also referred to as “MIN101C07”) was a Phase 3, randomized, DB, placebo-controlled, parallel-group 12-week study to evaluate the efficacy and safety of Roluperidone in patients ≥18 years to ≤55 years with negative symptoms of schizophrenia, followed by a 40-week OL extension. The study consisted of a pretreatment screening period of up to 28 days (including an antipsychotic medication washout period), a 12-week, DB, placebo-controlled period, and a 40-week OL period. Eligible patients (with moderate to severe negative symptoms of schizophrenia and stable positive symptoms but without severe symptoms of suspiciousness, agitation, hostility, uncooperativeness, or poor impulse control) were randomized 1:1:1 to receive Roluperidone 32 mg QD, Roluperidone 64 mg QD (GR01/B formulation, see U.S. Pat. No. 11,464,744), or placebo, orally, for 12 weeks. […] During the 40-week OL treatment extension, patients who were initially randomized to Roluperidone 32 mg or 64 mg continued treatment with the same dose, while patients who were initially randomized to placebo crossed over to Roluperidone 32 mg or 64 mg in a 1:1 ratio.

[2] = test system: patients with negative symptoms of schizophrenia; test: Study #2 (MIN-101C07): safety and tolerability (TEAEs, QT); settings: for Incidence of TEAEs: DB period
Excerpt: as §1
The incidence of TEAEs was slightly higher in the Roluperidone groups than in the placebo group during the DB period (42% in the 32 mg Roluperidone group, 37% in the 64 mg Roluperidone group, and 33% in the placebo group). The majority of TEAEs reported were in the System Organ Class (SOC) psychiatric disorders. The most commonly reported TEAEs were insomnia, schizophrenia, anxiety, agitation, and headache. […] In total, 6 patients met stopping criteria due to QT prolongations, and 4 of these 6 patients were discontinued from the study due to such prolongations. The remaining 2 patients were discontinued for other reasons prior to confirming their QT prolongations.

schizophrenia patient = test: Case report Patient X: Roluperidone monotherapy over 2+ years; settings: 64 mg/day monotherapy, two years
Method: Patient X presented with flat effect and restricted emotional expression, poor motivation to do much more than watch television and occasionally participate in occupational therapy for a few hours a week. Patient could not fully concentrate enough to even read. During the course of monotherapy with Roluperidone (64 mg/day), patient saw gradual improvement in their negative and cognitive symptoms. This allowed the patient to find employment. Their affect is no longer restricted and they read full novels on a regular basis with no trouble concentrating, and enjoys and looks forward to all their various daily activities.

1H-Isoindol-1-one,2-[ [1-[2-(4-fluorophenyl)-2-oxoethyl]-4-piperidinyl]methyl]-2,3-dihydro-, hydrochloride, hydrate (1:1:2) [Roluperidone]
Change from Baseline LS Mean: Calgary Depression Scale for Schizophrenia ([1]; 32 mg QD): −0.2 | Effect Size (Cohen's d) vs Placebo: Calgary Depression Scale for Schizophrenia ([1]; 32 mg QD): 0.21 | Change from Baseline LS Mean: Calgary Depression Scale for Schizophrenia ([1]; 64 mg QD): −0.1 | Effect Size (Cohen's d) vs Placebo: Calgary Depression Scale for Schizophrenia ([1]; 64 mg QD): 0.14 | Change in safety laboratory parameters, including prolactin [2]: no significant change | Change in vital signs, including weight and waist circumference [2]: no significant change | Incidence of TEAEs ([2]; 32 mg): 42% | Incidence of TEAEs ([2]; 64 mg): 37% | Tolerability ([2]; 32 and 64 mg): generally well tolerated | Patients who met stopping criteria due to QT prolongations ([2]; in total): 6 patients | QT prolongation ([2]; majority of clinically significant prolongations with 64 mg): Dose-related QT prolongation was observed | Patients discontinued from the study due to QT prolongations ([2]; of the 6 meeting stopping criteria): 4 patients | Relapse under monotherapy (schizophrenia patient): has not had a relapse
